Measured values: PubChem BioAssay (NCI)
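Compound exposure: 48 hours, 5 concentrations, 96-well plates. TGI: total growth inhibition.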

How the values were obtained:
Test in all cases: growth of human tumour cells (NCI), 48 h
786-0 renal = system: 786-0 renal
A498 renal = system: A498 renal
A549 NSCLC = system: A549 NSCLC
ACHN renal = system: ACHN renal
CAKI-1 renal = system: CAKI-1 renal
CCRF-CEM leukemia = system: CCRF-CEM leukemia
COLO 205 colon = system: COLO 205 colon
DLD-1 colon = system: DLD-1 colon
DMS 114 small cell lung = system: DMS 114 small cell lung
DMS 273 small cell lung = system: DMS 273 small cell lung
EKVX NSCLC = system: EKVX NSCLC
HCC-2998 colon = system: HCC-2998 colon
HCT-116 colon = system: HCT-116 colon
HCT-15 colon = system: HCT-15 colon
HL-60(TB) leukemia = system: HL-60(TB) leukemia
HOP-18 NSCLC = system: HOP-18 NSCLC
HOP-62 NSCLC = system: HOP-62 NSCLC
HOP-92 NSCLC = system: HOP-92 NSCLC
HT29 colon = system: HT29 colon
IGROV1 ovarian = system: IGROV1 ovarian
K-562 leukemia = system: K-562 leukemia
KM12 colon = system: KM12 colon
KM20L2 colon = system: KM20L2 colon
LOX IMVI melanoma = system: LOX IMVI melanoma
LXFL 529 NSCLC = system: LXFL 529 NSCLC
M14 melanoma = system: M14 melanoma
M19-MEL melanoma = system: M19-MEL melanoma
MALME-3M melanoma = system: MALME-3M melanoma
MOLT-4 leukemia = system: MOLT-4 leukemia
NCI-H226 lung = system: NCI-H226 lung
NCI-H23 lung = system: NCI-H23 lung
NCI-H460 lung = system: NCI-H460 lung
NCI-H522 lung = system: NCI-H522 lung
OVCAR-3 ovarian = system: OVCAR-3 ovarian
OVCAR-4 ovarian = system: OVCAR-4 ovarian
OVCAR-5 ovarian = system: OVCAR-5 ovarian
OVCAR-8 ovarian = system: OVCAR-8 ovarian
RXF 393 renal = system: RXF 393 renal
SF-268 CNS = system: SF-268 CNS
SF-295 CNS = system: SF-295 CNS
SF-539 CNS = system: SF-539 CNS
SK-MEL-2 melanoma = system: SK-MEL-2 melanoma
SK-MEL-28 melanoma = system: SK-MEL-28 melanoma
SK-MEL-5 melanoma = system: SK-MEL-5 melanoma
SK-OV-3 ovarian = system: SK-OV-3 ovarian
SN12C renal = system: SN12C renal
SNB-19 CNS = system: SNB-19 CNS
SNB-75 CNS = system: SNB-75 CNS
SNB-78 CNS = system: SNB-78 CNS
SR leukemia = system: SR leukemia
SW-620 colon = system: SW-620 colon
TK-10 renal = system: TK-10 renal
U251 CNS = system: U251 CNS
UACC-257 melanoma = system: UACC-257 melanoma
UACC-62 melanoma = system: UACC-62 melanoma
UO-31 renal = system: UO-31 renal

SMILES: Cc1nc(Nc2ccc(Cl)cc2)sc1C(=O)NNC(=O)C(=O)NN
- TGI (786-0 renal): 32 µM
- TGI (A498 renal): 29.5 µM
- TGI (A549 NSCLC): 37.9 µM
- TGI (ACHN renal): 49.4 µM
- TGI (CAKI-1 renal): 49.3 µM
- TGI (CCRF-CEM leukemia): 52.8 µM
- TGI (COLO 205 colon): 35.8 µM
- TGI (DLD-1 colon): 32.9 µM
- TGI (DMS 114 small cell lung): 40.7 µM
- TGI (DMS 273 small cell lung): 33.9 µM
- TGI (EKVX NSCLC): 30.6 µM
- TGI (HCC-2998 colon): 35.5 µM
- TGI (HCT-116 colon): 33.9 µM
- TGI (HCT-15 colon): 31.6 µM
- TGI (HL-60(TB) leukemia): 41 µM
- TGI (HOP-18 NSCLC): 37.1 µM
- TGI (HOP-62 NSCLC): 35.9 µM
- TGI (HOP-92 NSCLC): 36.4 µM
- TGI (HT29 colon): 31.2 µM
- TGI (IGROV1 ovarian): 33.7 µM
- TGI (K-562 leukemia): 51.4 µM
- TGI (KM12 colon): 36 µM
- TGI (KM20L2 colon): 30 µM
- TGI (LOX IMVI melanoma): 32.3 µM
- TGI (LXFL 529 NSCLC): 33.6 µM
- TGI (M14 melanoma): 34 µM
- TGI (M19-MEL melanoma): 35.6 µM
- TGI (MALME-3M melanoma): 38.8 µM
- TGI (MOLT-4 leukemia): 42.5 µM
- TGI (NCI-H226 lung): 36.6 µM
- TGI (NCI-H23 lung): 31.8 µM
- TGI (NCI-H460 lung): 34.7 µM
- TGI (NCI-H522 lung): 32 µM
- TGI (OVCAR-3 ovarian): 38.1 µM
- TGI (OVCAR-4 ovarian): 34.3 µM
- TGI (OVCAR-5 ovarian): 34.5 µM
- TGI (OVCAR-8 ovarian): > 100 µM
- TGI (RXF 393 renal): 43.4 µM
- TGI (SF-268 CNS): 66.5 µM
- TGI (SF-295 CNS): 34 µM
- TGI (SF-539 CNS): 41 µM
- TGI (SK-MEL-2 melanoma): 32.6 µM
- TGI (SK-MEL-28 melanoma): 47.3 µM
- TGI (SK-MEL-5 melanoma): 32.7 µM
- TGI (SK-OV-3 ovarian): 40.5 µM
- TGI (SN12C renal): 30.5 µM
- TGI (SNB-19 CNS): 46.3 µM
- TGI (SNB-75 CNS): 48.6 µM
- TGI (SNB-78 CNS): 64 µM
- TGI (SR leukemia): 54.8 µM
- TGI (SW-620 colon): 32.6 µM
- TGI (TK-10 renal): 91.7 µM
- TGI (U251 CNS): 33.2 µM
- TGI (UACC-257 melanoma): 52.5 µM
- TGI (UACC-62 melanoma): 28.6 µM
- TGI (UO-31 renal): 31.5 µM
